The source of these data is US20260234144A1 (TAY THERAPEUTICS LIMITED, priority 2023, published 2026).

The assay deals with R223X stop codon in the mutated luciferase gene, ADXC8 luciferase reporter cell line. The assay can be described thus: cells. Format: cell-based. The following applies: ADXC8 cells, 24 hours; for Emax / EC (100% of 200 uM G418 response): 24 h; for Emax: read-out: Fold Over Control, maximum fold response relative to 200 μM G418; for EC (100% of 200 uM G418 response): read-out: pC100%, negative logarithm of the concentration giving the same response as 200 μM G418; for Fold Over Control: maximum fold response relative to 200 μM G418; for pC100%: negative logarithm of the concentration giving the same response as 200 μM G418. As for the experimental part:
The read-through activity of compounds was assessed using the ADXC8 luciferase reporter cell line (generated as described in McElroy et al. PLoS Biology (2013), 11, e1001593). […] The amount of luciferase is measured by adding a lysis buffer containing luciferin substrate and detecting luminescence using the following protocol:
ADXC8 cells in assay media (DMEM+10% FBS) were seeded into 96-well tissue culture treated white plates (Greiner) to a density of 13,000 cells per well and incubated for 24 hours at 37° C. in an atmosphere of 5% CO2. […] Plates were incubated for a further 24 hours at 37° C. in an atmosphere of 5% CO2. Cells treated with 200 μM G418 (with 1% DMSO) were used as a positive control.
Cell viability and firefly luciferase activity were measured in the same assay wells. CellTiter-Fluor™ reagent was prepared as per manufacturer's instructions (Promega E7120) and 20 μl of 5× CellTiter-Fluor™ reagent was added to all wells, briefly mixed by orbital shaking (300-500 rpm for −30 seconds) and the plates incubated for 30-45 minutes at 37° C. in an atmosphere of 5% C02. Cell viability was measured by monitoring fluorescence on a CLARIOstar® plate reader (BMG Labtech). Cells containing 1% DMSO were used as a positive control and cells with 400 μM Doxorubicin were used as negative control to define 100 and 0% respectively. ONE-Glo™ luciferase assay buffer (Promega E7120) was prepared according to manufacturer's instructions and 100 μl of luciferase reagent was added to each well and the plate incubated at RT for 3 mins before measuring the luminescence on the CLARIOstar® plate reader (BMG Labtech). Cells treated with 200 μM G418 (with 1% DMSO) were used as a positive control and arbitrarily assigned a value of 100%. Cells treated with 1% DMSO were used as the negative control to define 0% response.
Concentration effect curves were analysed using non-linear regression using the CDD Vault from Collaborative Drug Discovery (Burlingame, CA). […] The bottom and top of the curves were constrained to 0 and the maximum measured response respectively. From the fitted curves, the software derived C100% values (the concentration giving the same response as 200 μM G418) for each compound. The negative logarithm of C100% is reported as pC100% (Table 1). In addition to pC100% values, the maximum fold response relative to 200 μM G418 (Fold over Control) was also captured (Table 1). A pC100% categorisation of ‘-’ in Table 1 represents examples in which a pC100% response was not reached when assayed at a concentration of 100 μM. A pC100% categorisation of ‘*’ in Table 1 represents examples in which a pC100% response was not reached when assayed at a concentration of 30 μM.

On to `CN1CCC(Nc2nc(N)c3cc(C4CCCC4)cnc3n2)CC1` [Example 243, 6-cyclopentyl-N^2-(1-methylpiperidin-4-yl)pyrido[2,3-d]pyrimidine-2,4-diamine], for which the Emax fell in the range of 100 to 3000% and the EC (100% of 200 uM G418 response) fell in the range of 10 to 100 µM.

With `CNc1nc(NC2(CO)CCNC2)nc2nc(C)cc(C)c12` (single isomer, unassigned) [Example 441], the “Fold Over Control” value is given as “## (Fold over Ctrl > 1 ≤ 30)” and the pC100% entry was “++ (pC100% > 5.0 ≤ 6.0)”.

Turning to `Cc1cc(C)c2c(N)nc(NC3CCCN(C(=O)OC(C)(C)C)CC3)nc2n1` (stereo not drawn) [Example 131, tert-butyl 4-((4-amino-5,7-dimethylpyrido[2,3-d]pyrimidin-2-yl)amino)azepane-1-carboxylate], the Emax was in the range of 0 to 100% and the EC (100% of 200 uM G418 response) is > 100 µM.

With `Cc1cc(C)c2c(NCCN3CCOCC3)nc(NC3CCN(C)CC3)nc2n1` [Example 357], the Emax lay within 100 to 3000% and the EC (100% of 200 uM G418 response) fell in the range of 1 to 10 µM.

Take `Cc1cc(C)c2c(N)nc(N[C@H]3CCNC3)nc2n1` [Example 292]: the Emax is 100 to 3000% and the EC (100% of 200 uM G418 response) was 1 to 10 µM.

As for `Cc1cc(C)c2c(N)nc(NC3CC4(C3)CN(C(=O)OC(C)(C)C)C4)nc2n1` [Example 134], the Emax fell in the range of 0 to 100% and the EC (100% of 200 uM G418 response) is > 100 µM.

Turning to `Cc1c2c(nc3nc(N[C@H]4CNC[C@@H]4O)nc(N(C)C)c13)CCC2` [Example 553], the Emax was 100 to 3000% and the EC (100% of 200 uM G418 response) was 10 to 100 µM.

Consider `Cc1cc(C)c2c(N)nc(NCCN3Cc4ccccc4C3)nc2n1` [Example 37, N^2-(2-(isoindolin-2-yl)ethyl)-5,7-dimethylpyrido[2,3-d]pyrimidine-2,4-diamine], for which the EC (100% of 200 uM G418 response) was 10 to 100 µM.

`CNc1nc(NC2CNCC2C#N)nc2nc(C)cc(C)c12` (single isomer, unassigned) [Example 451]: the “Fold Over Control” value was “# (Fold over Ctrl ≥ 0 ≤ 1)” and the pC100% entry is recorded as “* (pC100 ≤ 4.5)”.

Regarding `CNc1nc(NC2CC[C@H]2N(C)C)nc2nc(C)cc(C)c12` (stereo partly drawn) [Example 412], the EC (100% of 200 uM G418 response) lay in the range of 1 to 10 µM.

Regarding `Cc1cc(C)c2c(N)nc(NCCCNCC(F)(F)F)nc2n1` [Example 185], the Emax is 0 to 100% and the EC (100% of 200 uM G418 response) is > 31.6 µM.

As to `CNc1nc(NCC23CCC[C@H]2N(C)CC3)nc2nc(C)cc(C)c12` (stereo partly drawn) [Example 405], the Emax was in the range of 100 to 3000% and the EC (100% of 200 uM G418 response) fell in the range of 1 to 10 µM.

With `CNc1nc(N[C@@]2(C)CCN(C)C2)nc2nc(C)cc(C)c12` [Example 638], the Emax was 0 to 100% and the EC (100% of 200 uM G418 response) is > 31.6 µM.

`Cc1cc(C)c2c(NCC(F)F)nc(N[C@@H]3CCN(C)C3)nc2n1` [Example 636]: the EC (100% of 200 uM G418 response) lay within 1 to 10 µM.

For `Cc1ccccc1-c1ccc2c(N)nc(NC3CCN(C)CC3)nc2n1` [Example 110], the EC (100% of 200 uM G418 response) was in the range of 1 to 10 µM.

With `Cc1cc(C)c2c(N)nc(NC3CCN(Cc4cc(Cl)ccc4O)CC3)nc2n1` [Example 542], the Emax was in the range of 100 to 3000% and the EC (100% of 200 uM G418 response) fell in the range of 1 to 10 µM.

On to `CNc1nc(N[C@H]2CNC[C@@H]2C(F)(F)F)nc2nc(C)cc(C)c12` [Example 417], for which the EC (100% of 200 uM G418 response) was 1 to 10 µM.

`Cc1cc(C)c2c(N)nc(NC3CC4CC[C@@H](C3)N4C(=O)OC(C)(C)C)nc2n1` (stereo partly drawn) [Example 137]: the Emax was 100 to 3000% and the EC (100% of 200 uM G418 response) lay within 10 to 100 µM.

For the compound `CN1CCC(Nc2nc(N)c3ccc(-c4ccc(CO)cc4)nc3n2)CC1` [Example 94], the Emax lay in the range of 100 to 3000% and the EC (100% of 200 uM G418 response) is 10 to 100 µM.

In the case of `CNc1nc(NC2CCNCC2)nc2nc(C)cc(C)c12` [Example 588], the EC (100% of 200 uM G418 response) lay within 0.1 to 1 µM.

For `COCc1ccccc1CN1CCC(Nc2nc(N)c3c(C)cc(C)nc3n2)CC1` [Example 455], the Emax is 100 to 3000% and the EC (100% of 200 uM G418 response) lay within 1 to 10 µM.

Regarding `Cc1cc(C)c2c(N)nc(NC3CCN(Cc4ccccn4)CC3)nc2n1` [Example 471], the Emax was in the range of 100 to 3000% and the EC (100% of 200 uM G418 response) is 1 to 10 µM.

Regarding `Cc1cc(C)c2c(N)nc(N[C@H]3CCCN(Cc4ccccc4)C3)nc2n1` [Example 215], the Emax lay in the range of 100 to 3000% and the EC (100% of 200 uM G418 response) lay within 1 to 10 µM.

As for `Cc1c2c(nc3nc(NC4CCN(Cc5ccccc5O)CC4)cc(N)c13)CCC2` [Example 680], the Emax is 100 to 3000% and the EC (100% of 200 uM G418 response) was in the range of 0.01 to 0.1 µM.

Regarding `CN1CCC(Nc2nc(N)c3ccc(-c4cccc(O)c4)nc3n2)CC1` [Example 104], the EC (100% of 200 uM G418 response) lay in the range of 10 to 100 µM.

Take `CN1CCC(Nc2nc(N)c3ccc(-c4ccccc4S(C)(=O)=O)nc3n2)CC1` [Example 116]: the Emax lay within 0 to 100% and the EC (100% of 200 uM G418 response) is > 100 µM.

Regarding `Cc1cc(-c2ccccc2)nc2nc(NCCCN3CCOCC3)nc(N)c12` [Example 120, 5-methyl-N2-(3-morpholinopropyl)-7-phenylpyrido[2,3-d]pyrimidine-2,4-diamine], the Emax lay in the range of 100 to 3000% and the EC (100% of 200 uM G418 response) was 1 to 10 µM.

Take `CN1CCC(Nc2nc(N)c3ccc(-c4cncnc4)nc3n2)CC1` [Example 98]: the Emax fell in the range of 0 to 100% and the EC (100% of 200 uM G418 response) is > 100 µM.

As to `CN1CCC(Nc2nc(N)c3ccc(-c4cccc(F)c4)nc3n2)CC1` [Example 62], the Emax is 100 to 3000% and the EC (100% of 200 uM G418 response) fell in the range of 1 to 10 µM.

As for `CSc1ccccc1-c1ccc2c(N)nc(NC3CCN(C)CC3)nc2n1` [Example 82], the EC (100% of 200 uM G418 response) lay in the range of 1 to 10 µM.

For `C=C(C)c1ccnc2nc(NC3CCN(C)CC3)nc(N)c12` [Example 245, N^2-(1-methylpiperidin-4-yl)-5-(prop-1-en-2-yl)pyrido[2,3-d]pyrimidine-2,4-diamine], the Emax was in the range of 0 to 100% and the EC (100% of 200 uM G418 response) was > 100 µM.

Consider `COC(C)c1ccc2c(N)nc(NC3CCN(C)CC3)nc2n1` (stereo not drawn) [Example 290], for which the Emax was 100 to 3000% and the EC (100% of 200 uM G418 response) lay in the range of 10 to 100 µM.

For `CNc1nc(NCC23CCCN2CCC3)nc2nc(C)cc(C)c12` [Example 600], the Emax lay in the range of 0 to 100% and the EC (100% of 200 uM G418 response) is > 31.6 µM.

For the compound `Cc1cc(C)c2c(N)nc(NC3CCN(Cc4c(F)cccc4F)CC3)nc2n1` [Example 479], the Emax lay within 100 to 3000% and the EC (100% of 200 uM G418 response) fell in the range of 1 to 10 µM.

In the case of `Cc1cc(C)c2c(N)nc(NC3CCN(Cc4cocn4)CC3)nc2n1` [Example 472], the Emax was 100 to 3000% and the EC (100% of 200 uM G418 response) fell in the range of 1 to 10 µM.

As to `Cc1cc(C)c2c(NCc3ccccn3)nc(NC3CCN(C)CC3)nc2n1` [Example 317], the Emax was in the range of 100 to 3000% and the EC (100% of 200 uM G418 response) is 10 to 100 µM.

For `Cc1cc(C)c2c(N)nc(NC3CCNCC3)nc2n1` [Example 279], the Emax lay within 100 to 3000% and the EC (100% of 200 uM G418 response) was 1 to 10 µM.

In the case of `CN1CCC(Nc2nc(N)c3cc(C(F)(F)F)cnc3n2)CC1` [Example 19, N^2-(1-methylpiperidin-4-yl)-6-(trifluoromethyl)pyrido[2,3-d]pyrimidine-2,4-diamine], the Emax lay in the range of 0 to 100% and the EC (100% of 200 uM G418 response) is > 100 µM.

For `CNc1nc(N[C@H]2CNC[C@@H]2O)nc2nc3c(c(C)c12)CCC3` [Example 341], the Emax fell in the range of 100 to 3000% and the EC (100% of 200 uM G418 response) fell in the range of 0.01 to 0.1 µM.

On to `CN1CCC(Nc2nc(N)c3ccc(-c4ccc(C(F)(F)F)cc4)nc3n2)CC1` [Example 66], for which the Emax fell in the range of 0 to 100% and the EC (100% of 200 uM G418 response) is > 100 µM.

Take `CNc1nc(NCC2CN3CCC2C3)nc2nc(C)cc(C)c12` (stereo not drawn) [Example 404]: the Emax lay in the range of 0 to 100% and the EC (100% of 200 uM G418 response) is > 31.6 µM.

`Cc1cc(C)c2c(N)nc(NC3CCN(Cc4ccccc4)CC3(F)F)nc2n1` (stereo not drawn) [Example 639]: the Emax was in the range of 0 to 100% and the EC (100% of 200 uM G418 response) was > 31.6 µM.

In the case of `C#Cc1ccnc2nc(NC3CCN(C)CC3)nc(N)c12` [Example 249, 5-ethynyl-N^2-(1-methylpiperidin-4-yl)pyrido[2,3-d]pyrimidine-2,4-diamine], the Emax lay within 100 to 3000% and the EC (100% of 200 uM G418 response) fell in the range of 10 to 100 µM.
